In article PMC5008386, “Oridonin, a novel lysine acetyltransferases inhibitor, inhibits proliferation and induces apoptosis in gastric cancer cells through p53- and caspase-3-mediated mechanisms” (Oncotarget, 2016):

Target: T1, P300 (Homo sapiens, UniProt Q09472)
T1 construct: gene EP300
Assay: fluorogenic P300 acetyltransferase assay; also [3H]-acetyl CoA autoradiography and BLI (Octet RED96) with biotinylated oridonin
Format: biochemical

T1 sequence (Q09472 2-2414): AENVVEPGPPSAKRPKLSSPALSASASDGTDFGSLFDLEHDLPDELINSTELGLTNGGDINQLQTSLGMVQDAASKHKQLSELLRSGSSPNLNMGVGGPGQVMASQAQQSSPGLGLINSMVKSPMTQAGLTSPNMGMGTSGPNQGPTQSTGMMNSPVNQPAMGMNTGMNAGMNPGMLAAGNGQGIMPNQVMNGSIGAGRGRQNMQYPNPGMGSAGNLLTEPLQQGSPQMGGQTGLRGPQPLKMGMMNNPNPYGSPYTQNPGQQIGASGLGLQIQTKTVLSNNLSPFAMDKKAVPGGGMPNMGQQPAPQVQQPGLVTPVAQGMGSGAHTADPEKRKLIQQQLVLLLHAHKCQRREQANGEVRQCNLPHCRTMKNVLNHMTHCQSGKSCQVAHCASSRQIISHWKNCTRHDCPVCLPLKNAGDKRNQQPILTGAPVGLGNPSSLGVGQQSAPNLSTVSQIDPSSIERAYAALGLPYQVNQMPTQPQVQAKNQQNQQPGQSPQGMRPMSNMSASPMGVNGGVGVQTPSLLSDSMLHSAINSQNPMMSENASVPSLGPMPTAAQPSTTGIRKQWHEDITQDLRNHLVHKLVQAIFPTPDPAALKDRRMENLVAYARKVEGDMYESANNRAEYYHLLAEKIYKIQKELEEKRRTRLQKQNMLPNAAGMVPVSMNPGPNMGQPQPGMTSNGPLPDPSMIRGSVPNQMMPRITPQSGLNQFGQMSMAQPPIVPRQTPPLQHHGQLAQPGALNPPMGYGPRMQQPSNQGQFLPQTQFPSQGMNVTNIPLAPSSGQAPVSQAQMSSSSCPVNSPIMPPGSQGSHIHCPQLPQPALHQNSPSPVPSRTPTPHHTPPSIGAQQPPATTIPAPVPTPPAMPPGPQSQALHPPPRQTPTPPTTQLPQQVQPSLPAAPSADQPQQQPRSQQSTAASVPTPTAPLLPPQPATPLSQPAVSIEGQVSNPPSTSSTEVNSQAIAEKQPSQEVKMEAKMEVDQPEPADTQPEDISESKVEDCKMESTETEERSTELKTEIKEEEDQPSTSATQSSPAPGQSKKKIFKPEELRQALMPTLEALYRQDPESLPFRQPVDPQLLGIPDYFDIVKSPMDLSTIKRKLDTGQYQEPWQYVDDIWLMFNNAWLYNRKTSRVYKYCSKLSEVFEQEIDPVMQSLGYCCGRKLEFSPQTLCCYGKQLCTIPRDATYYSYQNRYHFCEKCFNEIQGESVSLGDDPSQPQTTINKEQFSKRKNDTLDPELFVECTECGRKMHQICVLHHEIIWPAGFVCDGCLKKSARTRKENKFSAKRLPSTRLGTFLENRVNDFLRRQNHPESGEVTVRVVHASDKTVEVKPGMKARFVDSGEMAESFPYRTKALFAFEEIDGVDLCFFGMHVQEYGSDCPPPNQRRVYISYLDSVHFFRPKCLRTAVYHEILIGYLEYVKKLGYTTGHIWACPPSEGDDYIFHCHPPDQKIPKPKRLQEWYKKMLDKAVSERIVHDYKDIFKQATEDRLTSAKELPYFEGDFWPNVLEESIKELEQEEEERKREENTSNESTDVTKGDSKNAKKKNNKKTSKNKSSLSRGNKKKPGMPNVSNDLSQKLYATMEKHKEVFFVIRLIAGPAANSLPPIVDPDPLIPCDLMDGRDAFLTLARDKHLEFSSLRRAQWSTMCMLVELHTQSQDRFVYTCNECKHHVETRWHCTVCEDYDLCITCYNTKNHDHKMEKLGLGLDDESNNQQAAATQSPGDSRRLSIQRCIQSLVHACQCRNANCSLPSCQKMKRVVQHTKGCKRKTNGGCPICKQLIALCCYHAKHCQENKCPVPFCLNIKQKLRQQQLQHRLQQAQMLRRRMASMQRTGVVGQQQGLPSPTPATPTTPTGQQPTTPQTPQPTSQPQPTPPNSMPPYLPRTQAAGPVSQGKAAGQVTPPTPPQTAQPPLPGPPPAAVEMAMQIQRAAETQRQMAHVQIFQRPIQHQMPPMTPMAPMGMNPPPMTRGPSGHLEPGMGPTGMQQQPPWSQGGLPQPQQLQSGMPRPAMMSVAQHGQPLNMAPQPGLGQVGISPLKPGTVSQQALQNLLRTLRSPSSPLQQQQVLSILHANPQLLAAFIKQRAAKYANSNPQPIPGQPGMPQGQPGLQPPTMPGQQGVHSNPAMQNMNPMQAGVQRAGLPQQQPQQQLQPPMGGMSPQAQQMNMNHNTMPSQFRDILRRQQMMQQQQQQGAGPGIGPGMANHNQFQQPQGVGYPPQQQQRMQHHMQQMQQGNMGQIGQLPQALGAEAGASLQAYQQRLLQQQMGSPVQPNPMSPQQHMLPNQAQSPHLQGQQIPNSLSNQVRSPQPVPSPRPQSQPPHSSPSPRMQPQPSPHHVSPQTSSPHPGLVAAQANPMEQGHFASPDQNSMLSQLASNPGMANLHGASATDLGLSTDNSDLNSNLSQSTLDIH

IC50: ~5 µM
Structure (SMILES): C=C1C(=O)[C@]23[C@H](O)[C@H]1CC[C@H]2[C@@]12CO[C@]3(O)[C@@H](O)[C@@H]1C(C)(C)CC[C@@H]2O [oridonin]
